Assay results taken from ChEMBL document CHEMBL1773063, “Aromatic radiofluorination and biological evaluation of 2-aryl-6-[18F]fluorobenzothiazoles as a potential positron emission tomography imaging probe for β-amyloid plaques” (Bioorg Med Chem, 2011).
pKi: −log10 of the molar value. The source made the active and inactive calls. The rule behind the calls is not given here.

Tests used:
[1] = molecular target: T1, Amyloid-beta precursor protein (Homo sapiens, UniProt P05067); experiment: biochemical
T1 sequence (P05067 whole entry): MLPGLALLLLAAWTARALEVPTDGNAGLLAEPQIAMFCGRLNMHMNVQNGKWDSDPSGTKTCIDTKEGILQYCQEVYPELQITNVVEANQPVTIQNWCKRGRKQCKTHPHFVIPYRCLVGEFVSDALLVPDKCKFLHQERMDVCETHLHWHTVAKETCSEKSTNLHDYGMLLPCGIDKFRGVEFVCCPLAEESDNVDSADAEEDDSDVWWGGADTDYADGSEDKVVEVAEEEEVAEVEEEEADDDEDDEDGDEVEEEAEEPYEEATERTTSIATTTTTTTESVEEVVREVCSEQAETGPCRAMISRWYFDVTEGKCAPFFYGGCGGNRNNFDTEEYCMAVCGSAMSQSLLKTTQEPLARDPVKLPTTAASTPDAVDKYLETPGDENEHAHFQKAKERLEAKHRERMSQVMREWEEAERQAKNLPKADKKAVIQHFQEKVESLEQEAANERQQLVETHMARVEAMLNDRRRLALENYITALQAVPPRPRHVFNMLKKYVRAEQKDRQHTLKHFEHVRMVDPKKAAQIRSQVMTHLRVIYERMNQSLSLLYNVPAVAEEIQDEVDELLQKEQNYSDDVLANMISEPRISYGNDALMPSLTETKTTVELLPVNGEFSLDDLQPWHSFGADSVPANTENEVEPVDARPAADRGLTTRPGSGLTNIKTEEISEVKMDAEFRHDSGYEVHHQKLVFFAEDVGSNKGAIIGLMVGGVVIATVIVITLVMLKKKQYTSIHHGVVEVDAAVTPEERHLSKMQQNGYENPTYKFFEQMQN
Description: Displacement of [125I]TZDM from amyloid beta (1 to 42) aggregates in Alzheimer's disease-human brain homogenate after 3 hrs by gamma counting

[2] = molecular target: T1, Amyloid-beta precursor protein; experiment: biochemical; remark: listed apart in the source
Description: Displacement of [3H]PIB from amyloid beta (1 to 42) aggregates in Alzheimer's disease-human brain homogenate after 3 hrs by gamma counting

[3] = physchem; details: octanol/PBS
Description: Octanol-PBS partition coefficient, log P of the compound by gamma counter

[4] = organism: Mus musculus; experiment: Binding affinity to beta-amyloid plaque in wild type mouse brain after 3 mins by Thioflavin-S fluorescence-based confocal microscopy; format: tissue-based
[5] = organism: Mus musculus; experiment: Binding affinity to beta-amyloid plaque in APPswe/PS1deltaE9 double transgenic mouse brain after 3 mins by Thioflavin-S fluorescence-based confocal microscopy; format: tissue-based
[6] = test system: Blood; details: mouse, in vivo, iv, 1 h
Description: Biodistribution in ICR mouse blood at 1.1 MBq, iv after 60 mins postinjection

[7] = test system: Cortex; details: mouse, in vivo, iv, 1 h
Description: Biodistribution in ICR mouse cortex at 1.1 MBq, iv after 60 mins postinjection

[8] = test system: Blood; details: mouse, in vivo, iv, 2 min
Description: Biodistribution in ICR mouse blood at 1.1 MBq, iv after 2 mins postinjection

[9] = test system: Blood; details: mouse, in vivo, iv, 0.5 h
Description: Biodistribution in ICR mouse blood at 1.1 MBq, iv after 30 mins postinjection

[10] = test system: Brain; details: mouse, in vivo, iv, 1 h
Description: Biodistribution in remaining brain of ICR mouse at 1.1 MBq, iv after 60 mins postinjection

[11] = test system: Brain; details: mouse, in vivo, iv, 0.5 h
Description: Biodistribution in remaining brain of ICR mouse at 1.1 MBq, iv after 30 mins postinjection

[12] = test system: Cerebellum; details: mouse, in vivo, iv, 1 h
Description: Biodistribution in ICR mouse cerebellum at 1.1 MBq, iv after 60 mins postinjection

[13] = test system: Cortex; details: mouse, in vivo, iv, 2 min
Description: Biodistribution in ICR mouse cortex at 1.1 MBq, iv after 2 mins postinjection

[14] = test system: Cerebellum; details: mouse, in vivo, iv, 2 min
Description: Biodistribution in ICR mouse cerebellum at 1.1 MBq, iv after 2 mins postinjection

[15] = test system: Cortex; details: mouse, in vivo, iv, 0.5 h
Description: Biodistribution in ICR mouse cortex at 1.1 MBq, iv after 30 mins postinjection

[16] = test system: Brain; details: mouse, in vivo, iv, 2 min
Description: Biodistribution in remaining brain of ICR mouse at 1.1 MBq, iv after 2 mins postinjection

[17] = in vitro; details: human, serum
Description: Metabolic stability in human serum assessed as compound remaining at 3.7 MBq after 120 mins by radio-TLC

[18] = test system: Cerebellum; details: mouse, in vivo, iv, 0.5 h
Description: Biodistribution in ICR mouse cerebellum at 1.1 MBq, iv after 30 mins postinjection

In the case of `CN(C)c1ccc(-c2nc3ccc(F)cc3s2)cc1`, the pKi [1] was 8.23, the pKi [2] was 9.52 and the logP [3] was 3.6.

With `CNc1ccc(-c2nc3ccc(F)cc3s2)cc1` the Activity [4] was “Active”, the Activity [5] was “Active” and the pKi [1] was 8.26. For the same compound, the pKi [2] was 9.70 and the logP [3] was 3.2.

Work on `CNc1ccc(-c2nc3ccc([18F])cc3s2)cc1` yielded a Drug uptake [6] of 1.11 % ID/g, a Drug uptake [7] of 0.73 % ID/g and a Drug uptake [8] of 2.08 % ID/g. It also gave a Drug uptake [9] of 1.13 % ID/g, a Drug uptake [10] of 1.32 % ID/g and a Drug uptake [11] of 1.91 % ID/g. It also gave a Drug uptake [12] of 0.98 % ID/g, a Drug uptake [13] of 6.62 % ID/g and a Drug uptake [14] of 6.24 % ID/g. The Drug uptake [15] was 1.2 % ID/g, the Drug uptake [16] was 6.3 % ID/g and the remaining at 2 h, 3.7 MBq [17] was 90%. The Drug uptake [18] was 1.38 % ID/g.

Compound `CN(C)c1ccc(-c2nc3ccc([18F])cc3s2)cc1` has a Drug uptake [6] of 1.02 % ID/g, a Drug uptake [7] of 1.61 % ID/g and a Drug uptake [8] of 1.55 % ID/g. It also gave a Drug uptake [9] of 1.04 % ID/g, a Drug uptake [10] of 2.01 % ID/g and a Drug uptake [11] of 2.8 % ID/g. For the same compound, the Drug uptake [12] was 1.16 % ID/g, the Drug uptake [13] was 4.39 % ID/g and the Drug uptake [14] was 4.45 % ID/g. It also gave a Drug uptake [15] of 2.17 % ID/g, a Drug uptake [16] of 4.26 % ID/g and a remaining at 2 h, 3.7 MBq [17] of 90%. It also gave a Drug uptake [18] of 2.03 % ID/g.
